Where no end group is shown, it is not given here.
What was measured:
rats [1] = assay: Rat formalin test, intranasal administration of peptide 30 min before formalin; format: in vivo; details: Table 7; for Duration of the 1st peak of pain reaction: in s
Protocol: (§1) Analgesic activity of newly synthesized peptides was examined as follows. Rats weighing 180-200 g were suboccipitally injected with the study peptide under ether anesthesia using a microdispenser in 10 μl of normal saline. Control animals were similarly injected with the equal amount of normal saline. After 20 minutes, 50 mcl of formalin solution at a dilution of 1:50 was injected into the dorsal surface of the right hind paw. The time of peptide injection and formalin dilution has been developed earlier. Each rat was used only once. The most clear behavioral indicators of pain reaction were expressed in paw tucking, licking, nibbling and jolting. Moreover, the first acute reaction to pain lasting for 6-7 min in control animals was followed by the dormant period: a rat lowered its paw, grooming behavior and nibbling was stopped. Then the reaction was repeated with expression not less than the previous one—it was the second phase of pain reaction.
The moment of paw tucking (beginning of the 1st phase of pain reaction), duration of this reaction, duration of dormancy and time of onset of the second phase of reaction—repeated paw tucking or its absence—were visually recorded in order to obtain quantitative data. Peptide was injected 20 min prior to formalin injection in case of suboccipital method of peptide injection and 30 min prior to formalin injection in case of intranasal method. […]

rats [2] = assay: Rat formalin test, suboccipital injection of peptide 20 min before formalin; format: in vivo; details: for Duration of the first peak of pain reaction / Time of pain reaction onset: Table 2, suboccipital injection
Protocol: Analgesic activity of newly synthesized peptides was examined in the “formalin test” which allows discovering non-narcotic type of anesthesia (Wheeler-Aceto H., Porrea F., A. Cowan. The rat paw formalin test: comparison of noxious agents. Pain, 40 (1990), 229-238).
as §1
The moment of paw tucking (beginning of the 1st phase of pain reaction), duration of this reaction, duration of dormancy and time of onset of the second phase of reaction—repeated paw tucking or its absence—were visually recorded in order to obtain quantitative data. Peptide was injected 20 min prior to formalin injection in case of suboccipital method of peptide injection and 30 min prior to formalin injection in case of intranasal method.

[3] = earlier work; cited from earlier work
rats [4] = details: earlier work of Kotin, Vlasov et al. 1988; cited from earlier work
[5] = intranasal in citrate phosphate buffer, 30 min prior to formalin 2%, dose 10 μg

Row | Substance | Beginning of pain reaction (rats [1]; [5]) [s] | Beginning of pain reaction (rats [1]; intranasal, dose 0.1 μg) [s] | Beginning of the 2nd peak (rats [1]; intranasal, dose 0.1 μg) [min] | Duration of the 1st peak of pain reaction (rats [1]; intranasal, dose 0.1 μg) | Beginning of pain reaction (rats [1]; intranasal, dose 1 μg) [s] | Beginning of the 2nd peak (rats [1]; intranasal, dose 1 μg) | Duration of the 1st peak of pain reaction (rats [1]; intranasal, dose 1 μg) | Beginning of the 2nd peak (rats [1]; intranasal, dose 10 μg) [min] | Duration of the 1st peak of pain reaction (rats [1]; intranasal, dose 10 μg) | other results
1 | D-Thr-D-Glu-D-Leu-D-15 Lys-L-His-D-Leu-NH2 | 8 ± 3 | 48 ± 18 | 21.0 ± 5.3 | 300 ± 10 | 10 ± 2 | 12.5 ± 1.6, the min | 342 ± 26 | 15.0 ± 1.6 | 314 ± 32 | Number of rats that do not have the 2nd peak (rats [1]; intranasal, dose 1 μg, remark in the 2nd peak column): first one has none
2 | CGRP | – | – | – | – | – | – | – | – | – | Beginning of pain reaction (rats [2]; Table 4, dose 1 μg): 5 (2) sec; Beginning of the 2nd peak (rats [2]; Table 4, dose 1 μg): 17 (2) min; Duration of the 1st peak of pain reaction (rats [2]; Table 4, dose 1 μg): 402 (36); Analgesic activity in the formalin test (in words) (rats [2]; rats): does not have analgesic activity
3 | D-Thr-D-Glu-D-Leu-D-Lys-D-His-D-Leu-NH2 [Complete retro-inversion CT16-21] | 20 ± 9 | 126 | 16.2 ± 2.6 | 249 ± 20 | 12 ± 6 | 17.4 ± 2.9 min | 300 ± 46 | 14.4 ± 1.0 | 333 ± 9 | –
4 | LHKLQT [CT16-21] | – | – | – | – | – | – | – | – | – | Duration of the first peak of pain reaction (rats [2]; rats, dose 0.001 μg/rat): 394 (34) sec; Time of pain reaction onset (rats [2]; rats, dose 0.001 μg/rat): 17 (6) sec; Duration of the first peak of pain reaction (rats [2]; rats, dose 0.01 μg/rat): 328 (21) sec; Time of pain reaction onset (rats [2]; rats, dose 0.01 μg/rat): 19 (8) sec; Duration of the first peak of pain reaction (rats [2]; rats, dose 0.1 μg/rat): 263 (20) a < 0.001 sec; Time of pain reaction onset (rats [2]; rats, dose 0.1 μg/rat): 39 (8) a < 0.001 sec; Beginning of the 2nd peak (rats [2]; Table 3, dose 1 μg per rat): 21 ± 2 min; Duration of the 1st peak (rats [2]; Table 3, dose 1 μg per rat): 284 ± 20 s; Number of animals which do not have the 2nd peak of reaction (rats [2]; Table 3, dose 1 μg per rat): 4; Beginning of pain reaction (rats [2]; Table 3, dose 1 μg per rat, in s): 30 ± 6; Impact on calcium metabolism [3]: does not have immunologic activity, impact on calcium metabolism; Analgesic activity in the rat formalin test (in words) (rats [4]): high analgesic activity

From patent US20150073123A1, “SYNTHETIC PEPTIDES WITH A NON-NARCOTIC TYPE OF ANALGESIC EFFECT” (priority 2012, published 2015)
